Holding throughout (assay): Eurofins kinase profiling
What all share (format): biochemical

In one assay the target is T1, ErbB2(h) (Homo sapiens, UniProt P04626).
T1 construct: purchased Eurofins KinaseProfiler
As to conditions: read-out: residual kinase activity ErbB2(h). How it is done:
(§1) The kinase profiling analysis was performed at Eurofins (Poitiers, France). A total of 110 kinase assays were carried out according to Eurofins’ standard protocols. For protein kinase assays, the kinase activity was measured using Eurofins’ KinaseProfiler radiometric assay. In this assay, a panel of kinases was incubated with the test compound SJP1602 at a concentration of 1 µM, and the kinase activity was determined using radiolabeled phosphate as a substrate. Lipid and atypical kinase assays were conducted using Eurofins’ homogeneous time-resolved fluorescence assay. The same panel of kinases was incubated with SJP1602 at a concentration of 1 µM, and the activity of lipid and atypical kinases was measured using this assay.

For a further assay, the target named is T2, PKCθ(h) (Homo sapiens, UniProt Q04759).
T2 construct: purchased Eurofins KinaseProfiler
T2 sequence (Q04759 whole entry): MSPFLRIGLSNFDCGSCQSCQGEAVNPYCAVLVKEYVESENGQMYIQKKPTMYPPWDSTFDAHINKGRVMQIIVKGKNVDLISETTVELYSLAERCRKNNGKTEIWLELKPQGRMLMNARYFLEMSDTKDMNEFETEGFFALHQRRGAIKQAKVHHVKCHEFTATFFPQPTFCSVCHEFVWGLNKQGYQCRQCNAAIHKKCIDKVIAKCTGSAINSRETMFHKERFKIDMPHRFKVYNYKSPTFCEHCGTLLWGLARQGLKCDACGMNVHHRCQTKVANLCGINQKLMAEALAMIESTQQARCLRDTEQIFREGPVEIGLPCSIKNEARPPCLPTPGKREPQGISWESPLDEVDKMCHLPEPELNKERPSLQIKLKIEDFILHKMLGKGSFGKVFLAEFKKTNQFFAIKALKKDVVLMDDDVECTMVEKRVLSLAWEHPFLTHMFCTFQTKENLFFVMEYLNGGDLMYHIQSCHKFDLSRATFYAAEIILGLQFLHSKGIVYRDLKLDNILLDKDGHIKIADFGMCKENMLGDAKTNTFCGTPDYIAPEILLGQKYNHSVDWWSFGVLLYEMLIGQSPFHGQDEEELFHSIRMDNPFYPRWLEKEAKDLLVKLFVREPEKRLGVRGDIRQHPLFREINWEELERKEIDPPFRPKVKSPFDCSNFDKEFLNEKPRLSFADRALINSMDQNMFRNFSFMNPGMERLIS
As to conditions: read-out: residual kinase activity PKCθ(h). As for the experimental part: as §1

In a further assay the target is T3, IR(h) (Homo sapiens, UniProt P06213).
T3 construct: purchased Eurofins KinaseProfiler
The conditions noted are these: read-out: residual kinase activity IR(h). As for the experimental part: as §1

Another assay has as its target T4, PKBα(h) (Homo sapiens, UniProt P31749).
T4 construct: purchased Eurofins KinaseProfiler
The conditions noted are these: read-out: residual kinase activity PKBα(h). How it is done: as §1

Another assay deals with T5, p70S6K(h) (Homo sapiens, UniProt P23443).
T5 construct: purchased Eurofins KinaseProfiler
T5 sequence (P23443 whole entry): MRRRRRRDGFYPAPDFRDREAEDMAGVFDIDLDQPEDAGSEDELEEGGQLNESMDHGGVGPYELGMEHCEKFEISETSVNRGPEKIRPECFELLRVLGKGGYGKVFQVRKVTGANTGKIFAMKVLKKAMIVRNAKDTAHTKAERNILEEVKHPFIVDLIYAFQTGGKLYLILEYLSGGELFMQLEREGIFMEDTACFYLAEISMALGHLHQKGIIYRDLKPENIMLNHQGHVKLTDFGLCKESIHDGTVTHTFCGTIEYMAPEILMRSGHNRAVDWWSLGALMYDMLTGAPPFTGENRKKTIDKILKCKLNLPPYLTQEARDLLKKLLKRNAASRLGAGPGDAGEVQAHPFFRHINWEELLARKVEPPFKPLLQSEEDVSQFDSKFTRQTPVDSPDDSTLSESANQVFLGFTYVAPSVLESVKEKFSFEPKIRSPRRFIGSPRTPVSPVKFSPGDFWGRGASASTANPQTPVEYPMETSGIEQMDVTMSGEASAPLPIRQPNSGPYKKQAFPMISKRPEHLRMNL
The conditions noted are these: read-out: residual kinase activity p70S6K(h). As for the experimental part: as §1

A further assay addresses T6, cSRC(h) (Homo sapiens, UniProt P12931).
T6 construct: purchased Eurofins KinaseProfiler
The conditions noted are these: read-out: residual kinase activity cSRC(h). How it is done: as §1

The target in another assay is T7, BRK(h) (Homo sapiens, UniProt Q13882).
T7 construct: purchased Eurofins KinaseProfiler
T7 sequence (Q13882 whole entry): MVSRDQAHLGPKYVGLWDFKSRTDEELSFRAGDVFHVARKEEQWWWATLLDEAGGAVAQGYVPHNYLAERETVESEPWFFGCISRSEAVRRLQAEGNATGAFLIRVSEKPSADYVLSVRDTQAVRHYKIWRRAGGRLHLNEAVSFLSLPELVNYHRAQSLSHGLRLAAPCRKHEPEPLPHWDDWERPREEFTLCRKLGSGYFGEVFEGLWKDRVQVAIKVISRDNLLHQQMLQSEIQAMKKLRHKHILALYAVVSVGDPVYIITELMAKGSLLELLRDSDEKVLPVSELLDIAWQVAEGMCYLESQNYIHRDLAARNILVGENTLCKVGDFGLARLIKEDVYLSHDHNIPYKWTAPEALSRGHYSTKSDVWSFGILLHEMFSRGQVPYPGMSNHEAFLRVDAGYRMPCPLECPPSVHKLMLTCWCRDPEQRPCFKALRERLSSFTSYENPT
As to conditions: read-out: residual kinase activity BRK(h). As for the experimental part:
as §1

Another assay deals with T8, KDR(h) (Homo sapiens, UniProt P35968).
T8 construct: purchased Eurofins KinaseProfiler
As to conditions: read-out: residual kinase activity KDR(h). As for the experimental part:
as §1

The target of a further assay is T9, EphB4(h) (Homo sapiens, UniProt P54760).
T9 construct: purchased Eurofins KinaseProfiler
T9 sequence (P54760 16-987): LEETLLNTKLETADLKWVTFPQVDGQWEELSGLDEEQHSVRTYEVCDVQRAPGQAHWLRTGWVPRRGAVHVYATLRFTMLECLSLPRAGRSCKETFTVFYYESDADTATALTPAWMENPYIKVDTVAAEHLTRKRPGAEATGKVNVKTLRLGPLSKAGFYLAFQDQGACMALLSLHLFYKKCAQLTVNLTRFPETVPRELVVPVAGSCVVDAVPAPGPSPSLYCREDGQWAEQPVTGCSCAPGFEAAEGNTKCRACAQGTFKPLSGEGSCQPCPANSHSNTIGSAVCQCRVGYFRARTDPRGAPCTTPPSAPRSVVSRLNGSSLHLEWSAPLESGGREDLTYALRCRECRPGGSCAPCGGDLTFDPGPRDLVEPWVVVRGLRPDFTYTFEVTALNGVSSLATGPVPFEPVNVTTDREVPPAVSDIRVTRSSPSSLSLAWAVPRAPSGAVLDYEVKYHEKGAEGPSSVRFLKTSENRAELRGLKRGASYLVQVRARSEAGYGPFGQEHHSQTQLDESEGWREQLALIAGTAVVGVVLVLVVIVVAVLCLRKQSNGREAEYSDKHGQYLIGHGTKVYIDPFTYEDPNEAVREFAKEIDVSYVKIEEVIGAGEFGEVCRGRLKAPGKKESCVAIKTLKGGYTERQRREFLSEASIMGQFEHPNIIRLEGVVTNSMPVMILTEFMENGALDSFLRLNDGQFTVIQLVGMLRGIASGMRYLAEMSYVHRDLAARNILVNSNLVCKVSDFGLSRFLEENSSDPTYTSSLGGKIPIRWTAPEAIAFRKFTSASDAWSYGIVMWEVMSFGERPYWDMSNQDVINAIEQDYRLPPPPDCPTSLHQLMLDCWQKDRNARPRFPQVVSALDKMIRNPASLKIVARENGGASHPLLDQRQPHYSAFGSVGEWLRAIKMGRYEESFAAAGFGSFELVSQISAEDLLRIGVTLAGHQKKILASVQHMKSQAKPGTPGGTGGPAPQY
The conditions noted are these: read-out: residual kinase activity EphB4(h). How it is done:
as §1

The target in a further assay is T10, cKit(V560G)(h) (Homo sapiens, UniProt P10721, V560G).
T10 construct: purchased Eurofins KinaseProfiler
As to conditions: read-out: residual kinase activity cKit(V560G)(h). As for the experimental part:
as §1

Assay [1] deals with T11, PI3 Kinase (p110a(E545K)/p85a)(h) (Homo sapiens, UniProt P42336, E545K).
T11 construct: purchased Eurofins KinaseProfiler
As to conditions: read-out: residual kinase activity PI3 Kinase (p110a(E545K)/p85a)(h). How it is done:
as §1

The target of a further assay is T12, cKit(h) (Homo sapiens, UniProt P10721).
T12 construct: purchased Eurofins KinaseProfiler
As to conditions: read-out: residual kinase activity cKit(h). As for the experimental part: as §1

In assay [2] the target is T13, PI3 Kinase (p110a(H1047R)/p85a)(h) (Homo sapiens, UniProt P42336, H1047R).
T13 construct: purchased Eurofins KinaseProfiler
The conditions noted are these: read-out: residual kinase activity PI3 Kinase (p110a(H1047R)/p85a)(h). How it is done:
as §1

For a further assay, the target named is T14, PAK4(h) (Homo sapiens, UniProt O96013).
T14 construct: purchased Eurofins KinaseProfiler
T14 sequence (O96013 whole entry): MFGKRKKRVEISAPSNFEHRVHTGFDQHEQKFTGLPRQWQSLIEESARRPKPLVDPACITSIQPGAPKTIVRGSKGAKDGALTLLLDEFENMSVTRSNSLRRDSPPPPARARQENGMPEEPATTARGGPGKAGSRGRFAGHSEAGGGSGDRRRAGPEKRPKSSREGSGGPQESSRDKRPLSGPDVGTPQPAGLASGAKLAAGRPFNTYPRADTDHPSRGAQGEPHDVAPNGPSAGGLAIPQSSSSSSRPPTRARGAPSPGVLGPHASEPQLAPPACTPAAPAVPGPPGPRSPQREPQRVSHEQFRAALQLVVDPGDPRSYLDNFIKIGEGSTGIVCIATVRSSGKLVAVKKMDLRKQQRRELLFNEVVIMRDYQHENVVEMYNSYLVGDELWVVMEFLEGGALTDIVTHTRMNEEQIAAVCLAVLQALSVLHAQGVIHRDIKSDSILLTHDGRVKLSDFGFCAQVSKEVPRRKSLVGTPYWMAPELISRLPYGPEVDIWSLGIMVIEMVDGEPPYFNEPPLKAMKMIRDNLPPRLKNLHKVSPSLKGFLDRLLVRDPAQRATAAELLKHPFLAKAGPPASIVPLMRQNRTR
The conditions noted are these: read-out: residual kinase activity PAK4(h). How it is done: as §1

The target in the next assay is T15, Lck(h) activated (Homo sapiens, UniProt P06239).
T15 construct: purchased Eurofins KinaseProfiler
As to conditions: 1 µM. How it is done:
as §1

For the next assay, the target named is T16, TrkC(h) (Homo sapiens, UniProt Q16288).
T16 construct: purchased Eurofins KinaseProfiler
T16 sequence (Q16288 32-839): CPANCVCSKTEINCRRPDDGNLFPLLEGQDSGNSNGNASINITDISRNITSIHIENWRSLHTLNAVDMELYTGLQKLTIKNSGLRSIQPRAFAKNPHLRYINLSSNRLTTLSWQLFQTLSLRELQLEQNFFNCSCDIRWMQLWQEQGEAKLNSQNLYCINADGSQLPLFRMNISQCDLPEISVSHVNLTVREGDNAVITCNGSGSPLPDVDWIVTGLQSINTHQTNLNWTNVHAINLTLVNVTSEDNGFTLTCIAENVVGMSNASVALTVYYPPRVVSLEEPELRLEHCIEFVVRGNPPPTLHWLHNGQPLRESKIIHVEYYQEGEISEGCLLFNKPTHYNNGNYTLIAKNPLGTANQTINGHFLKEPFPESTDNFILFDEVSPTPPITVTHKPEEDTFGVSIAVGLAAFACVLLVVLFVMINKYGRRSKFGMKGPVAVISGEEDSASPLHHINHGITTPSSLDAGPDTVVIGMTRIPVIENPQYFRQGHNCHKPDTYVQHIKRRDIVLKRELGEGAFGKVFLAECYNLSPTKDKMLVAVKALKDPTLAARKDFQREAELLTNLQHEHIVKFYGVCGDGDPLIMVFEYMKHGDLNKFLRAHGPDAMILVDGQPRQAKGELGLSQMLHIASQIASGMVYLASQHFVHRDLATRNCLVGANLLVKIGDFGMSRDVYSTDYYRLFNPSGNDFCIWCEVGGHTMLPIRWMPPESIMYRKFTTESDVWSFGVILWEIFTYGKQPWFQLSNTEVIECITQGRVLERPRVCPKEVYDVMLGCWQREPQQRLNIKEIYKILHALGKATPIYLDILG
The conditions noted are these: read-out: residual kinase activity TrkC(h). How it is done: as §1

T1 sequence (P04626 23-1255): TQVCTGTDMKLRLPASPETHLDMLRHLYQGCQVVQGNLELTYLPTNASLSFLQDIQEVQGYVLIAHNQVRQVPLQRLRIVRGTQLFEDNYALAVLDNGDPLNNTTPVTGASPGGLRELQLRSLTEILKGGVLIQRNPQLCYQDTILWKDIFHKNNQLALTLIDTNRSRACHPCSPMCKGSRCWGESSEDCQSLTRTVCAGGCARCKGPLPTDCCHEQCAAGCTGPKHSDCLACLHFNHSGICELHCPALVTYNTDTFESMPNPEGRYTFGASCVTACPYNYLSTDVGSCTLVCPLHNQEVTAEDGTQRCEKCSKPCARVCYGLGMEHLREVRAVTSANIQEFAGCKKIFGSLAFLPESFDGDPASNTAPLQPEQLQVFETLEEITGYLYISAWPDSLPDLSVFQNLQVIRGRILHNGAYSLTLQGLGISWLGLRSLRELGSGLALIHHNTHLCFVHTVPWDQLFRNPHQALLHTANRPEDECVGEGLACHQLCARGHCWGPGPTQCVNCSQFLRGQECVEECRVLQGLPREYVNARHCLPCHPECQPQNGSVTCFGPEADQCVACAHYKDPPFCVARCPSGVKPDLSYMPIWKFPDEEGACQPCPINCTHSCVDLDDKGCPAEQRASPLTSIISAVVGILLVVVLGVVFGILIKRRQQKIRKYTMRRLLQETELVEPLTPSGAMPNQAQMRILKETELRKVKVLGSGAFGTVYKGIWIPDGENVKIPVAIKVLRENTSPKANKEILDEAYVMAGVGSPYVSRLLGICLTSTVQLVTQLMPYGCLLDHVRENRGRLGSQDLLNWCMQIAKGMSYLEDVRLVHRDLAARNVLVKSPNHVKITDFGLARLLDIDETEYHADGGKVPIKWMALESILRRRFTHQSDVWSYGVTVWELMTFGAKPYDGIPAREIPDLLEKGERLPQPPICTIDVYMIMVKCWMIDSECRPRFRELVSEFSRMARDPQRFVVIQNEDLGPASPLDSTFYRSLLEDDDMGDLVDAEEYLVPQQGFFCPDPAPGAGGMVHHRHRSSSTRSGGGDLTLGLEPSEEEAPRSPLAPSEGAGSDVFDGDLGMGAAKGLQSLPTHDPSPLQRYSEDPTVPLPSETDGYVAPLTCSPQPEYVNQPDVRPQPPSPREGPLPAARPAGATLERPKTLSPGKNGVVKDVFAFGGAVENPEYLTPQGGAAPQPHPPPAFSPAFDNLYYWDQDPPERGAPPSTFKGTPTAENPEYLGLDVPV
T6 sequence (P12931 whole entry): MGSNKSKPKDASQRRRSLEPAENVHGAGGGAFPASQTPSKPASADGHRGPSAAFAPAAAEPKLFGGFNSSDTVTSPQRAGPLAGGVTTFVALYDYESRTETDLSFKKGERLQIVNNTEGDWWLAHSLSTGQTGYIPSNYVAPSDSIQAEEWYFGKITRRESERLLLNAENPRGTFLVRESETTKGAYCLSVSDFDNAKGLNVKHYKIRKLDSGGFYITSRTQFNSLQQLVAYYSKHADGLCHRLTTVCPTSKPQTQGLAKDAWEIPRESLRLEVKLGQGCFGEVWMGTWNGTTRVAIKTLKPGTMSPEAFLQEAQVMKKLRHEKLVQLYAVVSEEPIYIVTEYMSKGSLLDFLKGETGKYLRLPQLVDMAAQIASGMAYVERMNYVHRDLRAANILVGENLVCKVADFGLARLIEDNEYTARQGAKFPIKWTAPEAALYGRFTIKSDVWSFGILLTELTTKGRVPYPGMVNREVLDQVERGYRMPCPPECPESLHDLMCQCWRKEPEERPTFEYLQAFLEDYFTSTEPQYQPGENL

For the compound `CNC(=O)c1cccc(C)c1Nc1nc(Nc2ccc(N3CCN(C4C5CC6CC4CC(O)(C6)C5)CC3)cc2OC)ncc1C(F)(F)F` (stereo not drawn) [SJP1602, 2-((2-((4-(4-((2s,5r)-5-hydroxyadamantan-2-yl)piperazin-1-yl)-2-methoxyphenyl)amino)-5-(trifluoromethyl)pyrimidin-4-yl)amino)-N,3-dimethylbenzamide], the remaining activity at 1 µM came to 113% on ErbB2(h); 93% at PKCθ(h); 103% at IR(h); 100% on PKBα(h); 124% at p70S6K(h); 99% at cSRC(h). The remaining activity at 1 µM on BRK(h) was 109%; at KDR(h), 101%; on EphB4(h) it was 93%; on cKit(V560G)(h), 136%; in [1], 98%; on cKit(h), 97%. The remaining activity at 1 µM came to 97% in assay [2], 85% on PAK4(h) and 120% at TrkC(h). Moreover, the “residual kinase activity Lck(h) activated” value at Lck(h) activated is 107.

On to `CNC(=O)c1ccc(Nc2ncc(C(F)(F)F)c(NCc3nccnc3N(C)S(C)(=O)=O)n2)cc1` [VS-6063, Defactinib], for which the remaining activity at 1 µM at ErbB2(h) came to 122%; at PKCθ(h), 63%; at IR(h), 62%; at PKBα(h), 101%; on p70S6K(h), 98%; on cSRC(h), 72%. The remaining activity at 1 µM was determined as 91% on BRK(h); 28% at KDR(h); 67% at EphB4(h); 74% at cKit(V560G)(h); 100% in [1]; 80% on cKit(h). Further, the remaining activity at 1 µM worked out at 101% in assay [2], 42% on PAK4(h) and 13% at TrkC(h). Besides, the “residual kinase activity Lck(h) activated” value at Lck(h) activated came out at 58.

For `CONC(=O)c1ccccc1Nc1cc(Nc2cc(C)nn2C(C)C)ncc1Cl` [GSK2256098], the remaining activity at 1 µM at ErbB2(h) was 94%; at PKCθ(h), 96%; at IR(h), 105%; on PKBα(h), 105%; on p70S6K(h) it was 69%; at cSRC(h) it was 88%. Besides, the remaining activity at 1 µM is 67% on BRK(h); 88% at KDR(h); 94% on EphB4(h); 104% on cKit(V560G)(h); 93% in assay [1]; 93% at cKit(h). The remaining activity at 1 µM is 97% in assay [2], 93% on PAK4(h) and 104% at TrkC(h). The “residual kinase activity Lck(h) activated” value on Lck(h) activated amounted to 90.
